Measurements: patent publication US9688722B2, “Substrates and inhibitors of prolyl oligopeptidase and methods of use” (The Board of Regents of the University of Oklahoma, priority 2012, dated 2017)
Entries after “also recorded” stand apart in the source; their conditions may differ. Like-named read-outs stand apart in the source and are kept apart here. Non-standard residues stand in square brackets, D forms with d. Residues, ends and D or L forms follow the SMILES beside them. *: point of attachment. AFC = O=c1cc(C(F)(F)F)c2ccc(N*)cc2o1; Tic = O=C(O)[C@@H]1Cc2ccccc2CN1; AMC = Cc1cc(=O)oc2cc(N*)ccc12; Cbz = O=C(OCc1ccccc1)*; AEEA = NCCOCCOCC(=O)O

What was measured:
POP [1] = biological target: T1, POP (Homo sapiens, UniProt P48147); assay: POP inhibition constants (Ki) with Tic-Pro-AFC substrate; type: biochemical; conditions: for Selectivity Ki (POP) / Ki (APCE/FAP): ratio of Ki values; for Ki: substrate Tic-Pro-AFC
T1 sequence (P48147 1-710): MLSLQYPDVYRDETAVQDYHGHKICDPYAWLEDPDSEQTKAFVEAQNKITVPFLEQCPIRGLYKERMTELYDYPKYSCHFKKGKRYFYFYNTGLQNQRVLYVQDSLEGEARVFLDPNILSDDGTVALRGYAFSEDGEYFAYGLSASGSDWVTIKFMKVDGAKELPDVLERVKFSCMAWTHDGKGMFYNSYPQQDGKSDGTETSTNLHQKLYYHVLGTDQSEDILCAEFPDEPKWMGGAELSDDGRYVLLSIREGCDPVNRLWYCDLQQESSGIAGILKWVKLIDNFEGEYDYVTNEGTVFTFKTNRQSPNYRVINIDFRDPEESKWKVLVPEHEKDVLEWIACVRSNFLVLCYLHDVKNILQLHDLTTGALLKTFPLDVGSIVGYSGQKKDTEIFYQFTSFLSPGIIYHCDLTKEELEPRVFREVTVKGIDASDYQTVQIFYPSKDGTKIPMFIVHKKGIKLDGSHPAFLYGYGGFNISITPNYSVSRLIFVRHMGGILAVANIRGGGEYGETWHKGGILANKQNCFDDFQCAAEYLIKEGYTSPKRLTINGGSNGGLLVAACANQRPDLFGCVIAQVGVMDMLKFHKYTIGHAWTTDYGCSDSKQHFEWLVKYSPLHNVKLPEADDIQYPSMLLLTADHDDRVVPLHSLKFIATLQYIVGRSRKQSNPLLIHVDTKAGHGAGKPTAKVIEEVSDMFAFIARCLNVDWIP
Method: (§1) For accurate assessment of kinetic parameters, saturating concentrations of substrate were used. For standard curves, dilutions of AFC (7-amino-4-trifluoromethylcoumarin) were prepared in the same assay buffer and corresponding fluorescence was measured.

APCE/FAP [2] = biological target: T2, APCE/FAP (Homo sapiens, UniProt Q12884); assay: APCE/FAP inhibition constants (Ki) with Tic-Pro-AFC substrate; type: biochemical; conditions: for Ki: substrate Tic-Pro-AFC
T2 construct: absence of an about 26-residue amino terminal peptide constituting the transmembrane and intracytosolic domains; from tissue
T2 sequence (Q12884 24-760 limits assumed): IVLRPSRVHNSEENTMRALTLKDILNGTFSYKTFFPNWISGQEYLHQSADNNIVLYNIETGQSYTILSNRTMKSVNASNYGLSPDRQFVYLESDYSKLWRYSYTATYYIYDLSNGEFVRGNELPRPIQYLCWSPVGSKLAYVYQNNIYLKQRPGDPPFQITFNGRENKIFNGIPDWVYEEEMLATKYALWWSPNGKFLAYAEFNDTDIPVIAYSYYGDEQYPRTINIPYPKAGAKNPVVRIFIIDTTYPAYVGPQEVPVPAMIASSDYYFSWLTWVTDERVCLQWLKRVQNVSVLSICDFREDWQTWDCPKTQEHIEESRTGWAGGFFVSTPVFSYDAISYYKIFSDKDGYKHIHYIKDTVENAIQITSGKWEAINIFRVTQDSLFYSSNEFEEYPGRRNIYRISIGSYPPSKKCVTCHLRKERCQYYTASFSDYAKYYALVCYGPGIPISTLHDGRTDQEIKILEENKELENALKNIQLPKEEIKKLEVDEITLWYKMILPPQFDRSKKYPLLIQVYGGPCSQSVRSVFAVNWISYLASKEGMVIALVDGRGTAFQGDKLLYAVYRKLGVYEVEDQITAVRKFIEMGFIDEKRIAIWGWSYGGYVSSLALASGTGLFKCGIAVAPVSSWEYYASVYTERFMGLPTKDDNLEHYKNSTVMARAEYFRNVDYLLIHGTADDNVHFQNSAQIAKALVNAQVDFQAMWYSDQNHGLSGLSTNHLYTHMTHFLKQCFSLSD
Method: as §1

[3] = before cyclizing and losing inhibitory activity; cited from earlier work
DPPIV [4] = biological target: T3, DPPIV (Homo sapiens, UniProt P27487); conditions: result in words; cited from earlier work
T3 sequence (P27487 whole entry, species assumed): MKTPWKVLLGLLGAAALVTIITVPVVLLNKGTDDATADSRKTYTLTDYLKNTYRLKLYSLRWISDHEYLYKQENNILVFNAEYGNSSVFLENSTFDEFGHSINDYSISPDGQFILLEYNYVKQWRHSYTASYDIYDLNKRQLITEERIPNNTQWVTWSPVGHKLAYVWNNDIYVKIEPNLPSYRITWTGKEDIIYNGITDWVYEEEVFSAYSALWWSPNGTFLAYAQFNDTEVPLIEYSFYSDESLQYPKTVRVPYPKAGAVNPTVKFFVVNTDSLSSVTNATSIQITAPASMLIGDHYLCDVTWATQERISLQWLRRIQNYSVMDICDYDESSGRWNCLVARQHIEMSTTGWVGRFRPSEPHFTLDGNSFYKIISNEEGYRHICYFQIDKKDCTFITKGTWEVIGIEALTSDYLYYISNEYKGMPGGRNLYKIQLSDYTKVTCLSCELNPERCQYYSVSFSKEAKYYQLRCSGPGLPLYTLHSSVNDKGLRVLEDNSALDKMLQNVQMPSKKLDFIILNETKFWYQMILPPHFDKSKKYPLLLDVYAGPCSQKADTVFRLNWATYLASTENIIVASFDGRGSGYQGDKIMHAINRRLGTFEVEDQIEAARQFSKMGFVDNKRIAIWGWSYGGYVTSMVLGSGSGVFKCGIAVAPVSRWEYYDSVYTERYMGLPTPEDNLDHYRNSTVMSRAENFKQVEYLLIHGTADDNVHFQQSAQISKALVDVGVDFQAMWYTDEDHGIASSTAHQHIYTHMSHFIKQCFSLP

DPPIV [5] = biological target: T3, DPPIV; assay: Cleavage kinetics of fluorescent substrates by DPPIV; type: biochemical; conditions: for cleavage of substrate by DPPIV: result in words
Method: (§2) APCE (^˜4 μg), DPPIV (^˜2 μg) or POP (^˜2 μg) was incubated in 25 mM sodium phosphate buffer, pH 7.5, containing 1.0 mM EDTA and 2% methanol in a total volume of 200 μl for 20 min at 22° C. Using Tic-Pro-AFC (10-300 μM for APCE, 5-200 μM for DPPIV, and 40-800 μM for POP), fluorescence was monitored with time at excitation/emission wavelengths of 400/508 nm, using a black-sided 96-well plate in a BIO-TEK FL600 fluorescence plate reader. For accurate assessment of kinetic parameters, saturating concentrations of substrate were used. For standard curves, dilutions of AFC (7-amino-4-trifluoromethylcoumarin) were prepared in the same assay buffer and corresponding fluorescence was measured.
(§3) Characterization of Tic-Pro-AFC as substrate: A new substrate, Tic-Pro-AFC, was used for assessing APCE/FAP, DPPIV and POP, each belonging to the same clade of prolyl-specific serine proteinases and each with activity towards unique substrates. […] Based on Ki, Km and kcat values in Tables 6 and 7, Tic-Pro-AFC was readily cleaved by each enzyme, with kcat/Km for APCE/FAP being slightly higher than POP and slightly lower than DPPIV. […] Thus, Tic-Pro-AFC was chosen as the substrate for comparing the potency and selectivity of the inhibitors towards APCE/FAP, DPPIV, or POP.

APCE/FAP [6] = biological target: T2, APCE/FAP; assay: Cleavage kinetics of fluorescent substrates by APCE/FAP; type: biochemical
Method: as §2, §3

Aqueous solubility = type: physicochemical; conditions: result in words
Method: The specific POP inhibitor, J94 (acetyl-Lys-Leu-Arg-(L)boroPro (Ki<100 nM)); and the substrate, C95 (acetyl-Arg-AEEA-Gly-Pro-AMC), were designed, synthesized and characterized by us as previously reported. […] The inhibitors (J94 and M83) were dissolved in Hanks Balanced Salt Solution (HBSS; Gibco) at 1 mM and stored at −20° C. The substrate (C95) was dissolved in HBSS at 2.5 mM and stored at 4° C. […] Tic-Pro-AFC, a prolyl-specific fluorescent substrate, was supplied by Vantia (Southampton, England).

DPPIV [7] = biological target: T3, DPPIV; assay: DPPIV inhibition constants (Ki) with Tic-Pro-AFC substrate; type: biochemical; conditions: for Ki: substrate Tic-Pro-AFC; for Selectivity Ki (DPPIV) / Ki (APCE-FAP): ratio of Ki values
Method: as §1

POP [8] = biological target: T1, POP; assay: Cleavage kinetics of fluorescent substrates by POP; type: biochemical; conditions: for Km / kcat: substrate cleaved by POP
Method: as §2, §3

HMVEC-d = assay: Tube formation assay of HMVEC-d on Matrigel; type: cell-based, human; conditions: 50 μM inhibitor
Method: For tube formation assays, Matrigel™ (BD Biosciences, San Jose, Calif.) 80 μl was added to black-sided, clear bottom 96-well plates as above and allowed to gel at 37° C. for 30 minutes. Then 15,000 HMVEC-d in EC media without serum were added and allowed to settle for 1 hour. […] The reader was maintained at 37° C. and fluorescence was measured with time for 18 hours.

[9] = test system: HCT116 human colon cancer xenografts; assay: HCT116 human colon cancer xenografts in immunodeficient mice; type: in vivo; conditions: 28-day treatment period

Compound: CC(=O)N[C@@H](CCCNC(=N)N)C(=O)NCC(=O)NCC(=O)N1CCC[C@H]1B(O)O [Ac-Arg-Gly-Gly-L-boroPro]
- Selectivity Ki (POP) / Ki (APCE/FAP) (POP [1]): 0.1
- Ki (POP [1]): 1.6 nM

Compound: Ac-Arg-peg-D-Ala-DL(75:25%)-boroPro
- Ki (APCE/FAP [2]): 18.3 nM

Compound: Ac-Arg-peg-D-Ala-DL(25:75%)-boroPro
- Ki (APCE/FAP [2]): 7.7 nM

Compound: N[C@@H](CCC(=O)O)C(=O)N1CCC[C@H]1B(O)O [Glu-boroPro, glutamyl-proline boronic acid]
- plasma half-life [3]: exceptionally short
- inhibition of DPPIV (DPPIV [4]): also inhibits

Compound: CC(=O)N[C@@H](CCCNC(=N)N)C(=O)NCCOCCOCC(=O)NCC(=O)N1CCC[C@H]1C(=O)Nc1ccc2c(C)cc(=O)oc2c1 [Compound C95, acetyl-Arg-AEEA-Gly-Pro-AMC] (Ac-R[AEEA]GP-{AMC})
- cleavage of substrate by DPPIV (DPPIV [5]): neither cleaved
- relative rate of cleavage by FAP and POP (APCE/FAP [6]; FAP and POP at equimolar concentrations): equivalent rates; also recorded: cleaved at equal rates by FAP or POP
- solubility in aqueous buffers (Aqueous solubility): soluble in aqueous buffers

Compound: CC(=O)N[C@@H](CCCNC(=N)N)C(=O)NCCOCCOCC(=O)N[C@@H](CO)C(=O)NCC(=O)N1CCC[C@H]1B(O)O [Ac-Arg-peg-Ser-Gly-L-boroPro]
- Ki (APCE/FAP [2]): 2.7 nM
- Selectivity Ki (POP) / Ki (APCE/FAP) (POP [1]): 1.1
- Ki (POP [1]): 2.9 nM
- Ki (DPPIV [7]): 861 nM

Compound: CC(=O)N[C@@H](CCCNC(=N)N)C(=O)NCCOCCOCC(=O)N[C@H](C)C(=O)N1CCC[C@@H]1B(O)O (single isomer, unassigned) [Ac-Arg-peg-D-Ala-D-boroPro]
- Ki (APCE/FAP [2]): 189 nM
- Ki (DPPIV [7]): 20500 nM

Compound: O=C(Nc1ccc2c(C(F)(F)F)cc(=O)oc2c1)[C@@H]1CCCN1C(=O)[C@@H]1Cc2ccccc2CN1 [Tic-Pro-AFC] (H-[Tic]-Pro-{AFC})
- Km (DPPIV [5]; substrate cleaved by DPPIV): 33 ± 2 µM
- kcat (DPPIV [5]; substrate cleaved by DPPIV): 1.49 ± 0.12 s⁻¹
- Km (APCE/FAP [6]; substrate cleaved by APCE/FAP): 53 ± 5 µM
- kcat (APCE/FAP [6]; substrate cleaved by APCE/FAP): 1.19 ± 0.11 s⁻¹
- Km (POP [8]): 161 ± 12 µM
- kcat (POP [8]): 0.76 ± 0.01 s⁻¹

Compound: Ac-Arg-Gly-Gly-DL-boroPro
- Ki (APCE/FAP [2]): 22.9 nM
- Selectivity Ki (DPPIV) / Ki (APCE-FAP) (DPPIV [7]): 14.9
- Ki (DPPIV [7]): 341 nM

Compound: Ac-Arg-peg-Gly-DL-boroPro
- Ki (APCE/FAP [2]): 3.1 nM
- Selectivity Ki (DPPIV) / Ki (APCE-FAP) (DPPIV [7]): 371
- Ki (DPPIV [7]): 1150 nM

Compound: Ac-Arg-peg-D-Ala-DL(50:50%)-boroPro
- Ki (APCE/FAP [2]): 9.5 nM
- Selectivity Ki (DPPIV) / Ki (APCE-FAP) (DPPIV [7]): 1176
- Ki (DPPIV [7]): 11200 nM

Compound: CC(C)[C@H](N)C(=O)N1CCC[C@H]1B(O)O [Val-boroPro]
- inhibition of DPPIV (DPPIV [4]): also inhibit

Compound: CC(=O)N[C@@H](CCCCN)C(=O)N[C@@H](CC(C)C)C(=O)N[C@@H](CCCNC(=N)N)C(=O)N1CCC[C@H]1C(=O)Nc1ccc2c(C)cc(=O)oc2c1 [Compound L96, acetyl-Lys-Leu-Arg-Pro-AMC] (Ac-KLRP-{AMC})
- cleavage of substrate by DPPIV (DPPIV [5]): Neither DPPIV nor APCE/FAP cleaved
- cleavage of substrate by APCE/FAP (APCE/FAP [6]; result in words): Neither DPPIV nor APCE/FAP cleaved
- Km (POP [8]): 30 ± 3 µM
- kcat (POP [8]): 2.4 ± 0.1 s⁻¹

Compound: Cc1cc(=O)oc2cc(NC(=O)[C@@H]3CCCN3C(=O)CNC(=O)OCc3ccccc3)ccc12 [Z-GP-AMC, benzyloxycarbonyl (Z)-GP-AMC] (Cbz-Gly-Pro-{AMC})
- cleavage of substrate by DPPIV (DPPIV [5]): not cleaved by DPPIV

Compound: CC(=O)N[C@@H](CCCCN)C(=O)N[C@@H](CC(C)C)C(=O)N[C@@H](CCCNC(=N)N)C(=O)N1CCC[C@H]1B(O)O [Compound J94, acetyl-Lys-Leu-Arg-(L)boroPro]
- inhibition of FAP (APCE/FAP [2]; result in words): none towards FAP; also recorded: no effect on FAP
- Ki (POP [1]): < 100 nM
- formation of capillary-like tubes (HMVEC-d): inhibited formation of capillary-like tubes; also recorded: abrogated the genesis of capillary-like tubes
- diminished cancer growth [9]: ~75%
- inhibition of DPPIV (DPPIV [7]; result in words): nor was it inhibited
- solubility in aqueous buffers (Aqueous solubility): soluble in aqueous buffers

Compound: Cc1cc(=O)oc2cc(NC(=O)[C@@H]3CCCN3C(=O)CN)ccc12 [GP-AMC] (H-Gly-Pro-{AMC})
- cleavage of substrate by POP (POP [8]; result in words): not cleaved by POP

Compound: CC(=O)N[C@@H](CCCNC(=N)N)C(=O)NCCOCCOCC(=O)NCC(=O)N1CCC[C@H]1B(O)O [Ac-Arg-peg-Gly-L-boroPro]
- Ki (APCE/FAP [2]): 1.8 nM
- Selectivity Ki (POP) / Ki (APCE/FAP) (POP [1]): 1.2
- Ki (POP [1]): 2.1 nM
- Ki (DPPIV [7]): 440 nM

Compound: CC(=O)N[C@@H](CCCNC(=N)N)C(=O)NCCOCCOCC(=O)N[C@H](CC(=O)O)C(=O)N1CCC[C@H]1B(O)O [Ac-Arg-peg-D-Asp-L-boroPro]
- Ki (APCE/FAP [2]): 1380 nM
- Selectivity Ki (POP) / Ki (APCE/FAP) (POP [1]): 0.02
- Ki (POP [1]): 23.9 nM
- Selectivity Ki (DPPIV) / Ki (APCE-FAP) (DPPIV [7]): 5.2
- Ki (DPPIV [7]): 7130 nM
